# Source: US20200080053A1, “USE OF PEPTIDE COMPOUNDS FOR PROMOTING SURVIVAL, GROWTH AND CELL DIFFERENTIATION” (Axoltis Pharma, priority 2016, published 2020)
# Square brackets hold non-standard residues; d marks the D form. Ends that are not written are not given here. Abu = CC[C@H](N)C(=O)O
# Key:
# Assay type in all cases: cell-based
# [1] = tested on: human mesenchymal stem cells (hMSC); assay: Cell proliferation of hMSCs depending on the culture conditions; settings: for number of MSC: add-on of ATRA (from J5); for effect on cell proliferation (number of MSCs): whatever the conditions / FBS concentration (2% or 10% FBS)
# Source text: Adult human bone marrow mononuclear cells Ficoll-extracted from two donors were obtained from Lonza. Cells were passaged once a week. The human mesenchymal stem cells (hMSC) were selected by plastic adherence and expanded by plating 50 000 cells/cm^2 in Modified Eagle Medium Alpha (MEMalpha, MacoPharma) supplemented with 10% Fetal Bovine Serum (FBS, PAA Laboratoires) and 0.1% Penicilline/Streptomycine (P/S, Lonza). The culture medium was changed after 3 days and then every day. After 2 to 5 weeks of culture at 37° C. in a humid environment and under 5% CO2, hMSC were harvested by trypsinization. The phenotype was confirmed by FACS analysis (BD Bioscience, BD LSR II) with CD73, CD90 and CD105 (positive), as well as CD34 and CD45 (negative) (Table 1).
# (§1) To investigate the neural differentiation capacity of the peptides, 25 cm^2 flasks and 12-wells culture plates were coated with sterile aqueous solutions of either NX210 or NS640 at a concentration of 80 μg/cm^2. Coatings were carried out at 37° C. and 5% CO2 over-night prior to cell plating.
# On Day 0 (D0), hMSC were seeded at a concentration of 3,000 cells/cm^2 in pre-coated 25 cm^2 flasks or 12-well culture plates in complete medium and culture was placed at 37° C. in a humid environment and under 5% CO2. After 24h, medium was changed and replaced by different combinations of media containing either: MEMalpha—bFGF 12.5 ng/mL—FBS 2%—P/S 0.1%; MEMalpha—bFGF 12.5 ng/mL—FBS 10%—P/S 0.1%; MEMalpha—FBS 2%—P/S 0.1% (control condition); MEMalpha—FBS 10%—P/S 0.1% (control condition). The cells were placed at 37° C. in a humid environment and under 5% CO2, and medium was changed twice a week. […] thus was changed with: MEMalpha—ATRA […]—FBS 2%—P/S 0.1%; MEMalpha—ATRA 20 μM—FBS 10%—P/S 0.1%; MEMalpha—FBS 2%—P/S 0.1% (control condition); MEMalpha—FBS 10%—P/S 0.1% (control condition). The cells were placed at 37° C. in a humid environment and under 5% CO2. Medium was changed twice a week. On Day 15 (D15), cells were harvested by trypsinization for mRNA extraction or fixed immunocytochemical analysis.
# [2] = tested on: human mesenchymal stem cells (hMSC); assay: Neural differentiation of hMSCs: immunocytochemical analysis (Nestin, MAP-2); settings: bFGF; for MAP-2 marker expression (immunocytochemistry staining) / Nestine marker expression (immunocytochemistry staining): 2% FBS, with or without peptide coating (FIG. 8); for Nestine expression (staining intensity): with or without peptide coating, compared to the control condition (FIG. 8)
# Protocol: as §1
# (§2) On Day 0 (D0), hMSC were seeded at a concentration of 3,000 cells/cm^2 in pre-coated 25 cm^2 flasks or 12-well culture plates in complete medium and culture was placed at 37° C. in a humid environment and under 5% CO2. After 24h, medium was changed and replaced by different combinations of media containing either: MEMalpha—bFGF 12.5 ng/mL—FBS 2%—P/S 0.1%; MEMalpha—bFGF 12.5 ng/mL—FBS 10%—P/S 0.1%; MEMalpha—FBS 2%—P/S 0.1% (control condition); MEMalpha—FBS 10%—P/S 0.1% (control condition). The cells were placed at 37° C. in a humid environment and under 5% CO2, and medium was changed twice a week. On Day 8, medium was replaced by medium containing ATRA in the place of bFGF and thus was changed with: MEMalpha—ATRA […]—FBS 2%—P/S 0.1%; MEMalpha—ATRA 20 μM—FBS 10%—P/S 0.1%; MEMalpha—FBS 2%—P/S 0.1% (control condition); MEMalpha—FBS 10%—P/S 0.1% (control condition). The cells were placed at 37° C. in a humid environment and under 5% CO2. Medium was changed twice a week. On Day 15 (D15), cells were harvested by trypsinization for mRNA extraction or fixed immunocytochemical analysis.
# Assessment of differentiation was performed by gene expression after extraction of mRNA at various time point (DO, D1, D8 and D15), and immunocytochemical analysis performed at the end of the culture period (D15).
# Immunocytochemical analyses were carried out on cells fixed in 4% paraformaldehyde and using standard protocols. After blocking with Triton 1×0.1%/BSA 5% during 30 min, cells were incubated with antibodies directed against Nestin (Millipore) or MAP-2 (Sigma) overnight at +4° C. After washing, appropriate FITC or Cyandidine-5 labelled secondary antibody are added. Nuclei were counterstained with Hoescht 33258 (Sigma). Obervations were performed using Leica TCS LSI system.
# [3] = tested on: human mesenchymal stem cells (hMSC); assay: Neural differentiation of hMSCs: gene expression by real-time PCR
# Protocol: as §1
# as §2, with “On Day 15 (D15), cells were harvested by trypsinization for mRNA extraction or fixed immunocytochemical analysis.” left out
# Total RNA was extracted using RNAeasy total purification kit following instructions of the manufacturer (Qiagen). cDNA were generated using a High-Capacity cDNA Reverse Transcription kit (Applied Biosystems) as described by the manufacturer.
# The expression levels of genes (GFAP, Musashi 1, Nestin, Beta3-Tubuline, MAP-2 and GAPDH) were analyzed by real-time PCR using TaqMan gene Expression Master Mix (Applied Biosystems) on the Applied Biosystems 7900 Real time PCR system (Life technologies). Samples were analyzed in triplicates. Data were normalized using the GAPDH gene as an internal control and relative quantification (RQ) of the genes in a sample was determined according to the equation 2^−Δct.
# [4] = patient no 1, day 5, bFGF 10% without ATRA (FIG. 6)
# [5] = patient no 1, bFGF 10% without ATRA (FIG. 6)
# [6] = patient no 1, bFGF 10% without ATRA, with respect to J0 (FIG. 6)
# [7] = patient no 2, bFGF 10% without ATRA (FIG. 7)
# [8] = patient no 2, bFGF 10% without ATRA, with respect to J0 (FIG. 7)
molecule,measurement,setting,value
"CC1=C(/C=C/C(C)=C/C=C/C(C)=C/C(=O)O)C(C)(C)CCC1 [ATRA, reference compound]",number of MSC,[1]; 2% FBS,small difference
same,number of MSC,[1]; 10% FBS,decrease
W-S-G-W-S-S-Abu-S-R-S-Nm (WSGWSS[Abu]SRS-NH2; N-terminus assumed; SMILES CC[C@H](NC(=O)[C@H](CO)NC(=O)[C@H](CO)NC(=O)[C@H](Cc1c[nH]c2ccccc12)NC(=O)CNC(=O)[C@H](CO)NC(=O)[C@@H](N)Cc1c[nH]c2ccccc12)C(=O)N[C@@H](CO)C(=O)N[C@@H](CCCNC(=N)N)C(=O)N[C@@H](CO)C(N)=O) [NS640],MAP-2 marker expression (immunocytochemistry staining),[2],stronger staining
same,Nestine marker expression (immunocytochemistry staining),[2],stronger staining
same,MAP-2 protein presence,"[2]; 10% FBS, peptide coating (FIG. 8)",makes possible to observe MAP-2 protein presence
same,Nestine expression (staining intensity),[2]; 10% FBS,maximized
same,effect on cell proliferation (number of MSCs),[1],no effect
same,"effect of peptide coating on the increase in Nestin, βIII-Tubulin and MAP-2 gene expression","[3]; bFGF then ATRA, 2% FBS, peptide coating 80 μg/cm2",does not modify this increase
same,MAP-2 expression,"[3]; bFGF then ATRA, 10% FBS, peptide coating, vs ×0.75 without peptide (FIG. 5)",1.46 ×
same,Nestin expression,"[3]; bFGF then ATRA, 10% FBS, peptide coating, vs ×1.2 without peptide (FIG. 5)",1.5 ×
same,Nestin expression,[3]; [4],2 ×
same,βIII-Tubuline expression,"[3]; patient no 2, after 5 days of culture, with bFGF (FIG. 7)",maximized
bFGF: growth factor added to the hMSC culture medium at 12.5 ng/mL,MAP-2 marker expression (immunocytochemistry staining),[2],increases the expression
same,Nestine marker expression (immunocytochemistry staining),[2],increases the expression
same,Nestine expression (staining intensity),[2]; 10% FBS,increases Nestine expression
same,effect on cell proliferation (number of MSCs),[1],positive effect
same,Induction of gene expression: MAP-2 P2,"[3]; 2% FBS, Patient no2",3
same,Musashi-1 expression,[3]; [5],decrease
same,Nestin expression,[3]; [5],decrease
same,expression of MAP-2,[3]; [6],2.3 ×
same,expression of βIII Tubulin,[3]; [6],9.3 ×
same,Nestin expression,[3]; [4],0.6 ×
same,MAP-2 expression,"[3]; patient no 2, D5, with bFGF (FIG. 7)",decreased
same,Musashi-1 expression,[3]; [7],decrease
same,Nestin expression,[3]; [7],decrease
same,Nestin expression,"[3]; patient no 2, bFGF 10% without ATRA, with or without coating (FIG. 7)",0.6 ×
same,expression of MAP-2,[3]; [8],2.3 ×
same,expression of βIII Tubulin,[3]; [8],9.3 ×
